Bounds are passed on as bounds.

Data set [1] addresses T1, Glucagon receptor (Homo sapiens, UniProt P47871). As to the kind of experiment: Displacement of [125I]-glucagon from human glucagon receptor expressed in HEK293 cell membranes at 10 uM after 2 hrs by microplate scintillation counting analysis relative to control. In general terms: In a radioligand displacement assay an active substance lowers the binding of a labelled ligand.

The target in data set [2] is T1, Glucagon receptor. Nature of the data set: Antagonist activity at human glucagon receptor expressed in CHOK1 cells assessed as inhibition of glucagon-stimulated intracellular cAMP formation preincubated for 20 mins followed by glucagon stimulation measured after 30 mins by fluorescent plate reader analysis. The settings on record: CHO-K1. It counts as functional, cell-based. (Changes in cAMP serve as a functional read-out for many G protein-coupled receptors.)

Data set [3] has as its target T1, Glucagon receptor. Nature of the data set: Displacement of [125I]-glucagon from full length human glucagon receptor expressed in HEK293 cell membranes after 2 hrs by scintillation counting analysis.
In data set [4] the target is T1, Glucagon receptor. Nature of the data set: Antagonist activity at recombinant human glucagon receptor expressed in CHO cells assessed as inhibition of glucagon-stimulated intracellular cAMP formation preincubated for 30 mins followed by glucagon stimulation measured after 45 mins by LANCE assay. It counts as functional, cell-based.
Data set [5] addresses T1, Glucagon receptor. Nature of the data set: Antagonist activity at human glucagon receptor expressed in HEK293 cell membranes assessed as inhibition of glucagon-stimulated intracellular cAMP formation preincubated for 30 mins followed by glucagon stimulation measured after 5 mins by TR-FRET analysis. It counts as functional, cell-based.
Data set [6] deals with T1, Glucagon receptor. Nature of the data set: Displacement of [125I]-glucagon from human glucagon receptor expressed in Chem-1 cell membranes after 6 to 10 hrs by scintillation proximity assay.
The species entered for data set [7] is Homo sapiens. Nature of the data set: Antidiabetic activity in type-2 diabetic human model assessed as decrease in fasting plasma glucose level at 6 mg, qd measured during night time. It counts as functional.
Data set [8] concerns Homo sapiens. Nature of the data set: In vivo inhibition of gucagon receptor in type-2 diabetic human model at 10 mg, qd measured during day time relative to control. It counts as functional.
For data set [9], the species on record is Homo sapiens. Nature of the data set: Antidiabetic activity in type-2 diabetic human model assessed as decrease in 24 hrs weighted mean glucose level at 10 mg, qd measured during day time. It counts as functional.
Data set [10] is filed under the species Homo sapiens. As to the kind of experiment: Antidiabetic activity in type-2 diabetic human model assessed as decrease in fasting plasma glucose level at 10 mg, qd measured during day time. It counts as functional.
Data set [11] deals with Homo sapiens. As to the kind of experiment: In vivo inhibition of gucagon receptor in type-2 diabetic human model at 25 mg, bid measured over 24 hrs relative to control. In kind it is functional.
Data set [12] is described as follows: Half life in human. As to conditions: in vivo. In kind it is ADME, organism-based.
For data set [13], the species on record is Homo sapiens. As to the kind of experiment: Antidiabetic activity in type-2 diabetic human model assessed as decrease in fasting plasma glucose level at 25 mg, bid. In kind it is functional.
Data set [14] deals with Homo sapiens. As to the kind of experiment: In vivo inhibition of gucagon receptor in type-2 diabetic human model at 6 mg, qd measured during night time relative to control. It counts as functional.
The species named for data set [15] is Homo sapiens. Nature of the data set: Toxicity in type-2 diabetic human model assessed as increase in LDL-C level at 25 mg, bid relative to control. In kind it is organism-based. As to conditions: in vivo.
The species named for data set [16] is Homo sapiens. Nature of the data set: Hypoglycemic activity in human assessed as time required to glucose recovery from 50 mg/dl to >= 70 mg/dl at 1 g (reference value: 33.3 min). It counts as functional.
In data set [17] the test system is Homo sapiens. Nature of the data set: Antidiabetic activity in type-2 diabetic human model assessed as reduction in HbA1c level at 60 mg, qd administered for 12 weeks measured after post last dose relative to control. Set-up: scale not given: the % may be the effect or the level left. In kind it is functional.
Data set [18] has as its system Homo sapiens. Nature of the data set: Antidiabetic activity in type-2 diabetic human model assessed as reduction in HbA1c level at 20 mg, qd administered for 12 weeks measured after post last dose relative to control. It counts as functional. Set-up: scale not given: the % may be the effect or the level left.
Data set [19] is filed under the species Homo sapiens. Nature of the data set: Hypoglycemic activity in human assessed as time required to glucose recovery from 50 mg/dl to >= 70 mg/dl at 200 mg (reference value: 33.3 min). In kind it is functional.
The subject of data set [20] is Homo sapiens. Nature of the data set: Antidiabetic activity in type-2 diabetic human model assessed as reduction in HbA1c level at 80 mg, qd administered for 12 weeks measured after post last dose relative to control. In kind it is functional. The arrangement: scale not given: the % may be the effect or the level left.
The subject of data set [21] is Homo sapiens. Nature of the data set: Antidiabetic activity in type-2 diabetic human model assessed as reduction in HbA1c level at 40 mg, qd administered for 12 weeks measured after post last dose relative to control. It counts as functional. Set-up: scale not given: the % may be the effect or the level left.
For data set [22], the species on record is Homo sapiens. Nature of the data set: Hypoglycemic activity in type-2 diabetic human assessed as time required to glucose recovery from 50 mg/dl to >= 63 mg/dl at 1 g in presence of beta blocker propranolol (reference value: 71 min). It counts as functional.

T1 sequence (P47871 whole entry): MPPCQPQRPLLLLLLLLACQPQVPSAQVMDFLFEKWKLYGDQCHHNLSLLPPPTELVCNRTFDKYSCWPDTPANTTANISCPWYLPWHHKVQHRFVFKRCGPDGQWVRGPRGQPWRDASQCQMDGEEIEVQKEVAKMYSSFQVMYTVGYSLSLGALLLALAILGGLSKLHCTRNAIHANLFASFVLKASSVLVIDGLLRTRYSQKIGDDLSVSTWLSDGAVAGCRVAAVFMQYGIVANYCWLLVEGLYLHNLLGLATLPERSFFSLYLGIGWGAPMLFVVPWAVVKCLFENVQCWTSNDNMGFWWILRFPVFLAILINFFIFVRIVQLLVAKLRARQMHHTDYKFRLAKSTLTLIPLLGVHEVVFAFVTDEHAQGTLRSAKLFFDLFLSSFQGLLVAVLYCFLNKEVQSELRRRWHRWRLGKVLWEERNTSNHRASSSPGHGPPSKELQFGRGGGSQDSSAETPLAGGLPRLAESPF

As usually defined, the inhibition is the percentage by which the read-out fell short of the control. `Cc1cc(-n2cc3c(n2)CCCC3)ccc1C(CCC(F)(F)F)Nc1ccc(C(=O)N2CCC[C@@H](C(=O)O)C2)cn1` (stereo partly specified) displayed an inhibition on Glucagon receptor [1] of 90%.

The Kb is the equilibrium dissociation constant of an antagonist, usually derived from a functional assay. In the case of `CC1(C)CC(C(Nc2cnc(-n3cc(C(F)(F)F)cn3)nc2)c2ccc(C(=O)NCCC(=O)O)cc2)C1` (racemic), the Kb at Glucagon receptor [2] is 0.019 µM.

Usually Ki stands for the equilibrium dissociation constant of an inhibitor or competing ligand from its target. In turn, `Cc1cc(C(F)(F)F)ccc1-c1ccc(NCc2cc(C(C)C)cc(C(F)(F)F)c2-c2ccc(C(=O)NCCC(=O)O)cc2)cc1Cl` registered an inhibitory constant (Ki) at Glucagon receptor [3] of 0.03 µM.

A word on the IC50: it is the concentration that inhibits the measured activity by half. In the case of `CC(C)(C)CCOc1cccc(C2=NC3(CCC(C(C)(C)C)CC3)N([C@H](CCC(C)(C)C)c3ccc(C(=O)NCc4nn[nH]n4)cc3)C2=O)c1` (stereo partly specified), at Glucagon receptor [4], the half-inhibitory concentration (IC50) came out at 0.061 µM.

Compound `Cc1cc(Cl)ccc1-c1ccc(NCc2cc(Cl)cc(C(F)(F)F)c2-c2ccc(C(=O)NCCC(=O)O)nc2)cc1` had a Ki at Glucagon receptor [3] of 0.02 µM. In addition, at Glucagon receptor [5], the half-maximal inhibitory concentration (IC50) is 0.004 µM.

For `Cc1cc(-c2ncc(C(F)(F)F)cn2)ccc1C(CCC(F)(F)F)Nc1ccc(C(=O)N2CCC[C@@H](C(=O)O)C2)cc1` (stereo partly specified), the inhibition at Glucagon receptor [1] worked out at 91%.

In the case of `CC(C)(C)CC[C@H](c1ccc(C(=O)NCCC(=O)O)cc1)N1C(=O)C(c2cccc(F)c2)=NC12CCC([Si](C)(C)C)CC2` (stereo partly specified), the IC50 on Glucagon receptor [4] is 0.022 µM.

Regarding `Cc1cc2cc(F)ccc2nc1NC(c1ccc(C(=O)NCCC(=O)O)cc1)C1CC(C)(C)C1` (stereo unspecified), the Kb at Glucagon receptor [2] was found to be 0.033 µM.

In the case of `Cc1cc2ccccc2nc1NC(c1ccc(C(=O)NCCC(=O)O)cc1)C1CC(C)(C)C1` (stereo unspecified), the antagonist equilibrium constant (Kb) on Glucagon receptor [2] was found to be 0.023 µM.

For `CCC[C@H](Nc1ccc(-n2cc(-c3ccccc3)cn2)cc1)c1ccc(C(=O)NCCC(=O)O)cc1`, the Kb at Glucagon receptor [2] stood at 0.0095 µM. This compound yielded a Ki at Glucagon receptor [6] of 0.026 µM.

A word on the half-life: it is how long it takes for the measured level to halve. As to `CCC[C@H](c1ccc(C(=O)NCCC(=O)O)cc1)[C@H](c1ccc(Cl)cc1)c1c[nH]c2c(F)cc(C)cc12` [MK-3577], the Activity was 17.5 mg/dL in the data set filed under Homo sapiens [7]; 18.8 mg/dL in the data set listed under Homo sapiens [9]; 7.2 mg/dL in the data set filed under Homo sapiens [10]; 31.7 mg/dL in the data set listed under Homo sapiens [13]; 10% in the data set filed under Homo sapiens [15]. Further, the “inhibition (INH)” value with Homo sapiens [8] is on record as below 50%; in the data set with Homo sapiens [11], above 80%; in the data set with Homo sapiens [14], below 50%. In data set [12], this compound had a half-life of 4 h.

As to `Cc1cc(C(F)(F)F)ccc1-c1ccc(NCc2ccc(C(F)(F)F)cc2-c2ccc(C(=O)NCCC(=O)O)nc2)cc1Cl`, the inhibition constant (Ki) on Glucagon receptor [3] was 0.017 µM. In addition, at Glucagon receptor [5], the half-inhibitory concentration (IC50) amounted to 0.022 µM.

Take `COc1ccc2cc(-c3cc(-c4cc(Cl)cc(Cl)c4)nn3[C@@H](C)c3ccc(C(=O)NCCC(=O)O)cc3)ccc2c1` [MK-0893]: the Time in the data set filed under Homo sapiens [16] is recorded as 59.1 min; in the data set filed under Homo sapiens [19], 45 min; in the data set listed under Homo sapiens [22], 103 min. The Activity was 1.5% with Homo sapiens [17], 0.6% with Homo sapiens [18], 1.8% in the data set on Homo sapiens [20] and 1% in the data set on Homo sapiens [21]. The half-life in [12] is 60 h.

These data come from ChEMBL document CHEMBL3616453, “Recent progress in the development of small-molecule glucagon receptor antagonists” (Bioorg Med Chem Lett, 2015).
